Consider 13 molecules from patent US12291522B2, “Galectin-3 inhibitors” (BRISTOL-MYERS SQUIBB COMPANY, priority 2020, dated 2025).

Each structure is given as a SMILES string. Where two headings read alike, the source gives them in different places.

Assay [1] deals with His-tagged recombinant human Gal-3 (hGal-3) (Homo sapiens, UniProt P17931). The assay is described as follows: Gal-3 HTRF assay (His-tagged hGal-3 / B-ASF). The assay is classed as binding. As to conditions: 15 nM hGal-3, 15 nM B-ASF. The protocol:
ASSAY BUFFER Composition: 25 mM HEPES, 100 mM NaCl, 0.005% Tween 20, 0.05% BSA prepared in sterile water (all reagents from Sigma).
• Positive Control: 100% DMSO (1 μL)+His-tagged hGal-3 (20 μL)+B-ASF (20 μL)+Anti-His Terbium Antibody (5 μL)+Strep d2 Antibody (5 μL). • Negative Control: 100% DMSO (1 μL)+His-tagged hGal-3 (20 μL)+Anti His Terbium Antibody (5 μL)+Strep d2 Aantibody (5 μL). Stocks Preparation:
PROTOCOL: The Gal-3 assays were performed in 384 white Opti plates in three replicates at room temperature with gentle shaking at 250-300 rpmFrom the original stocks, […] working stock concentrations of His-tagged recombinant human Gal-3 (hGal-3) and that of B-ASF were prepared. From the working stock, 20 μL of hGal-3 (15 nM) and 20 μL B-ASF (15 nM) were added to the plates. In Negative Control, only hGal-3 was added. A concentration range of 50× working stocks were prepared for the compounds in 100% DMSO. Aliquots of luL of the compounds were added to the wells and pre-incubated with 20 μL hGal-3 per well for 30 minutes Then 20 μL B-ASF wereadded and incubated for another 1 hour. To detect the signal, 5 μL (final conc. of 1.0 nM) terbium labelled Anti-His antibody was added and incubated for 30 min followed by adding 5 μL (final conc. of 20 nM) Streptavidin d2 and incubation for another 1 hour. The assay signal was detected using HTRF screen protocol (Excitation wavelength=340 nm, emission wavelength=615 nm/665 nm) on Envision 2104 Multilabel Reader. Data analysed using Toolset and Curve Master. Results are reported in the experimental section (IC50 in μM).

Assay [2] has as its target T1, hCRBN (NanoLuc-CRBN fusion construct in HEK-293 cells) (Homo sapiens, UniProt Q96SW2).
T1 construct: expressed in transfected cells; host or cells: HEK-293
Briefly: CRBN BRET Target Engagement. The assay is classed as cell-based. As to conditions: NanoLuc-CRBN transfected HEK-293 cells, BRET with CRBN Probe. How it is done:
CRBN BRET Target Engagement (hCRBN IC50 (μM))
NanoLuc-CRBN fusion construct was transfected in HEK-293 cells using FuGENE HD (Promega) according to the manufacturer's protocol. In brief, Nluc-CRBN was diluted into Transfection Carrier DNA (Promega) 1:10 (mass/mass), to which FuGENE HD was 1:3 (μg DNA:μL FuGENE HD). One part (vol) of DNA:FuGENE HD complexes were combined with 20 parts (vol) of HEK-293 cells suspended at a density of […]. Cells were incubated for ˜20 hr at 37° C./5% CO2. Following transfection, cells were washed and resuspended at 200,000 cells/mL in OptiMEM without phenol red (Gibco).
For BRET measurements, cells were seeded in a 384-well nonbinding surface plate (Corning) plate for a final count of 10,000 cells/well. Compounds were dissolved at 10 mM in dimethylsulfoxide (DMSO) and evaluated at eleven concentrations using a high concentration of […]. CRBN Probe was used for equilibrium measurements, employing a final concentration of approximately EC50-80. For live-cell measurements, 20 nM of CRBN Probe was added. For the live-cell assay conditions, the plates were incubated for 2 hours at 37° C./5% CO2. NanoBRET NanoGlo Substrate and Extracellular Nanoluc Inhibitor (Promega) were added according to manufacturer's guidelines. For lytic cell measurements, digitonin was added to the cells to a final concentration of 50 μg/mL and 20 nM of CRBN Probe was added. To measure NanoBRET in permeabilized cells, extracellular Nluc inhibitor was omitted during the detection step. For all BRET experiments, the Envision 2015 (Perkin Elmer) equipped with a BRET2 Enh mirror, BRET 647 nM/75 nM Bandwidth and BC703 460 nM/80 nM Bandwidth filters was used for readouts. Each read was integrated for 0.5 s.
To determine compound potency (IC50), BRET ratios for each dilution series was first normalized to a % Inhibition value via Equation 1, where “S” represents Sample BRET, “B” represents Background BRET, and “T” represents Total BRET. In this equation, the background control (B) consists of NanoLuc-CRBN expressing cells and no CRBN Probe. The total BRET Ratio (T) consists of NanoLuc-CRBN expressing cells, CRBN Probe, and an amount of DMSO at a concentration equivalent to that added when testing compounds.
Following normalization, the percent inhibition values are plotted as a function of compound concentration and fit to Equation 2. […]
For orientation: BRET reads energy transfer from a luciferase to a nearby fluorophore.

In assay [3] the target is T2, Gal3 (Human Galectin-3) in THP-1 cells (Homo sapiens, UniProt P17931).
T2 construct: host or cells: THP-1
Briefly: ELISA Gal3 Degradation Assay in THP-1 Cells. The assay is classed as cell-based. Conditions: 48 hours, culture media Gal3 by ELISA. The protocol:
[formula] ELISA Gal3 Degradation Assay in THP-1 Cells
THP-1 cells (ATCC, Cat #TIB-202), a human monocyte cell line derived from leukemia were plated at 2E6 cells/mL in 200 uL/well of RPMI 1640 (ThermoFisher, Cat #11835) in 96-well plates. Cells were treated with DMSO as a control and various concentrations of compounds for 48 hours. After the treatment, the culture media were collected. The PBS washed cell pellets were lysed in Lysis Buffer (Cell Signaling, Cat #9803) supplemented with 1XProtease Inhibitor Cocktail (Cell Signaling, Cat #5872). Gal3 levels in culture media and cell lysates were quantified by ELISA assays (Human Galectin-3 DuoSet ELISA kit, R&D Systems, Cat #DY1154) according to manufacturer's instructions. The cell culture media were also used for the assessment of cellular toxicity (LDH Assay kit, R&D Systems, DY994). The IC50 (degradation concentration at 50%) values were calculated based on the cellular Gal3 protein levels using DMSO as the control.
(An ELISA detects its analyte on a solid surface through an enzyme-linked reagent.)

The mark [4] stands for this setting: test 1, read-out: Supernatant (IC50) test 1.
[5] abbreviates: test 2, read-out: Supernatant (IC50) test 2.

T1 sequence (Q96SW2 whole entry, the tested form may be a part): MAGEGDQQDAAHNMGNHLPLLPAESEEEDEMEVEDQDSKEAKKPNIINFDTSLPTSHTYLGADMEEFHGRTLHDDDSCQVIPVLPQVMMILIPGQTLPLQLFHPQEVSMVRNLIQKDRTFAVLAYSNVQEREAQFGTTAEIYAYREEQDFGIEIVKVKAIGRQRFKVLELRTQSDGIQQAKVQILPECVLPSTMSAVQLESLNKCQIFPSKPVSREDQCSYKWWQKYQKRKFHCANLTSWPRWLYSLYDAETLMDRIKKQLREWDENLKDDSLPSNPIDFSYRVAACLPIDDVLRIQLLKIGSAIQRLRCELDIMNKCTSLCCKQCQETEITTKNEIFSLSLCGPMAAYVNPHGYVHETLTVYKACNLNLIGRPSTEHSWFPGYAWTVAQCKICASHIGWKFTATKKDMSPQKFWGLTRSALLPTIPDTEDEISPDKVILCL
Sequence of His-tagged recombinant human Gal-3 (hGal-3) (P17931 whole entry): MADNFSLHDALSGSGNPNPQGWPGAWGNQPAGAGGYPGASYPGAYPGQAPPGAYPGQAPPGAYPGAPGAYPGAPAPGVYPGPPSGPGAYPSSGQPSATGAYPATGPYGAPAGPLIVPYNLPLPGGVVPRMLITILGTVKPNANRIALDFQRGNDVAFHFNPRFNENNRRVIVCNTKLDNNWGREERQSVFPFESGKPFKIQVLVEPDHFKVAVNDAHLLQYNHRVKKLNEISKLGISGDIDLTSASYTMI
T2 sequence (P17931 whole entry): as above

With `Cc1nc([C@@H]2O[C@H](CO)[C@H](O)[C@H](n3cc(-c4cc(F)c(Cl)c(F)c4)nn3)[C@H]2OCC(=O)NCCOCC(=O)Nc2ccc3c(c2)CN(C2CCC(=O)NC2=O)C3=O)n(-c2cc(Cl)ccc2C(F)(F)F)n1` (stereo partly drawn) [Example 1, 2-(((2S,3R,4S,5R,6R)-2-(1-(5-Chloro-2-(trifluoromethyl)phenyl)-3-methyl-1H-1,2,4-triazol-5-yl)-4-(4-(4-chloro-3,5-difluorophenyl)-1H-1,2,3-triazol-1-yl)-5-hydroxy-6-(hydroxymethyl)tetrahydro-2H-pyran-3-yl)oxy)-N-(2-(2-((2-(2,6-dioxopiperidin-3-yl)-1-oxoisoindolin-5-yl)amino)-2-oxoethoxy)ethyl)acetamide], the results for the concentration for half-maximal inhibition (IC50) in assay [1] and in assay [2] were 82 nM and 780 nM, respectively.

For `Cc1nc([C@@H]2O[C@H](CO)[C@H](O)[C@H](n3cc(-c4cc(F)c(Cl)c(F)c4)nn3)[C@H]2OCC(=O)NCCOCC(=O)NCc2ccc(S(=O)(=O)Nc3ccc(C)c4c(C#N)c[nH]c34)cc2)n(-c2cc(Cl)ccc2C(F)(F)F)n1` [Example 22], the concentration for half-maximal inhibition (IC50) in assay [1] turned out to be 294 nM; in assay [3] (setting [4]), 3400 nM; in assay [3] (setting [5]), 3340 nM.

Consider `Cc1nc([C@@H]2O[C@H](CO)[C@H](O)[C@H](n3cc(-c4cc(F)c(Cl)c(F)c4)nn3)[C@H]2OCC(=O)NCc2ccc(C(=O)Nc3ccc4c(c3)CN(C3CCC(=O)NC3=O)C4=O)cc2)n(-c2cc(Cl)ccc2C(F)(F)F)n1` (stereo partly drawn) [Example 2, 4-((2-(((2S,3R,4S,5R,6R)-2-(1-(5-Chloro-2-(trifluoromethyl)phenyl)-3-methyl-1H-1,2,4-triazol-5-yl)-4-(4-(4-chloro-3,5-difluorophenyl)-1H-1,2,3-triazol-1-yl)-5-hydroxy-6-(hydroxymethyl)tetrahydro-2H-pyran-3-yl)oxy)acetamido)methyl)-N-(2-(2,6-dioxopiperidin-3-yl)-1-oxoisoindolin-5-yl)benzamide], for which the values for the IC50 in assay [1] and in assay [2] were 109 nM and 269 nM, respectively.

`Cc1nc([C@@H]2O[C@H](CO)[C@H](O)[C@H](n3cc(-c4cc(F)c(Cl)c(F)c4)nn3)[C@H]2OCC(=O)N2Cc3ccc(C(=O)Nc4ccc5c(c4)CN(C4CCC(=O)NC4=O)C5=O)cc3C2)n(-c2cc(Cl)ccc2C(F)(F)F)n1` (some centres unmarked) [Example 19]: the IC50 was found to be 51 nM in assay [1] and 17 nM in assay [2].

For `Cc1nc([C@@H]2O[C@H](CO)[C@H](O)[C@H](n3cc(-c4cc(F)c(Cl)c(F)c4)nn3)[C@H]2OCC(=O)N[C@H]2C[C@H](Oc3ccc(C(=O)Nc4ccc5c(c4)CN(C4CCC(=O)N(C)C4=O)C5=O)cc3)C2)n(-c2cc(Cl)ccc2C(F)(F)F)n1` (some centres unmarked) [Example 17], the figures for the IC50 in assay [1] and in assay [2] were 140 nM and above 50000 nM, respectively.

In the case of `Cc1nc([C@@H]2O[C@H](CO)[C@H](O)[C@H](n3cc(-c4cc(F)c(Cl)c(F)c4)nn3)[C@H]2OCC(=O)N2CC(Oc3ccc(C(=O)Nc4ccc5c(c4)CN(C4CCC(=O)N(C)C4=O)C5=O)cc3)C2)n(-c2cc(Cl)ccc2C(F)(F)F)n1` (some centres unmarked) [Example 28], the IC50 was found to be 98 nM in assay [1] and 10400 nM in assay [2].

In the case of `Cc1nc([C@@H]2O[C@H](CO)[C@H](O)[C@H](n3cc(-c4cc(F)c(Cl)c(F)c4)nn3)[C@H]2OCC(=O)N2CC(COc3ccc(C(=O)Nc4ccc5c(c4)CN(C4CCC(=O)NC4=O)C5=O)cc3)C2)n(-c2cc(Cl)ccc2C(F)(F)F)n1` (stereo partly drawn) [Example 7, 4-((1-(2-(((2S,3R,4S,5R,6R)-2-(1-(5-Chloro-2-(trifluoromethyl)phenyl)-3-methyl-1H-1,2,4-triazol-5-yl)-4-(4-(4-chloro-3,5-difluorophenyl)-1H-1,2,3-triazol-1-yl)-5-hydroxy-6-(hydroxymethyl)tetrahydro-2H-pyran-3-yl)oxy)acetyl)azetidin-3-yl)methoxy)-N-(2-(2,6-dioxopiperidin-3-yl)-1-oxoisoindolin-5-yl)benzamide], the IC50 was 56 nM in assay [1] and 601 nM in assay [2].

Take `Cc1nc([C@@H]2O[C@H](CO)[C@H](O)[C@H](n3cc(-c4cc(F)c(Cl)c(F)c4)nn3)[C@H]2OCC(=O)N(CCl)CCCOc2ccc(C(=O)Nc3ccc4c(c3)CN(C3CCC(=O)NC3=O)C4=O)cc2)n(-c2cc(Cl)ccc2C(F)(F)F)n1` (some centres unmarked) [Example 24]: the IC50 came to 212 nM in assay [1] and 2160 nM in assay [2].

As to `Cc1nc([C@@H]2O[C@H](CO)[C@H](O)[C@H](n3cc(-c4cc(F)c(Cl)c(F)c4)nn3)[C@H]2OCC(=O)NCCOCCOCCNC(=O)c2ccc3c(c2)C(=O)N(C2CCC(=O)N(C)C2=O)C3=O)n(-c2cc(Cl)ccc2C(F)(F)F)n1` (some centres unmarked) [Example 16], the 50% inhibitory concentration (IC50) in assay [1] is 69 nM; in assay [2] it was above 50000 nM.

For the molecule `Cc1nc([C@@H]2O[C@H](CO)[C@H](O)[C@H](n3cc(-c4cc(F)c(Cl)c(F)c4)nn3)[C@H]2OCC(=O)NCCOCCOCCOCCNC(=O)c2ccc3c(c2)C(=O)N(C2CCC(=O)NC2=O)C3=O)n(-c2cc(Cl)ccc2C(F)(F)F)n1` (some centres unmarked) [Example 13], the results for the IC50 in assay [1] and in assay [2] were 66 nM and 810 nM, respectively.

As for `Cc1nc([C@@H]2O[C@H](CO)[C@H](O)[C@H](n3cc(-c4cc(F)c(Cl)c(F)c4)nn3)[C@H]2OCC(=O)NCCOCCOCCNC(=O)COc2cccc3c2C(=O)N(C2CCC(=O)NC2=O)C3=O)n(-c2cc(Cl)ccc2C(F)(F)F)n1` (some centres unmarked) [Example 12], the results for the IC50 in assay [1] and in assay [2] were 20 nM and 520 nM, respectively.

Regarding `Cc1nc([C@@H]2O[C@H](CO)[C@H](O)[C@H](n3cc(-c4cc(F)c(Cl)c(F)c4)nn3)[C@H]2OCC(=O)NCCOCC(=O)N[C@H](C(=O)N2C[C@H](O)C[C@H]2C(=O)NCc2ccc(-c3scnc3C)cc2)C(C)(C)C)n(-c2cc(Cl)ccc2C(F)(F)F)n1` [Example 20], the IC50 in assay [1] turned out to be 50 nM; in assay [3] (setting [4]) it was 51 nM; in assay [3] (setting [5]), 42 nM.

Turning to `Cc1nc([C@@H]2O[C@H](CO)[C@H](O)[C@H](n3cc(-c4cc(F)c(Cl)c(F)c4)nn3)[C@H]2OCC(=O)N[C@H]2C[C@@H](Oc3ccc(C(=O)N[C@H](C(=O)N4C[C@H](O)C[C@H]4C(=O)NCc4ccc(-c5scnc5C)cc4)C(C)(C)C)nc3)C2)n(-c2cc(Cl)ccc2C(F)(F)F)n1` [Example 33], the figures for the IC50 in assay [1], in assay [3] (setting [4]) and in assay [3] (setting [5]) were 1010 nM, above 30000 nM and above 30000 nM, respectively.

What is called IC50 is the concentration that gives 50% inhibition.
